Data reported in patent publication US12692254B2, “Benzimidazole inhibitors of PAD enzymes” (BRISTOL-MYERS SQUIBB COMPANY, priority 2018, dated 2026).

The compounds below were run against human PAD4 (hPAD4) (Homo sapiens, UniProt Q9UM07) (assay: RFMS human PAD4 functional assay (rapid-fire mass spectrum)). Details: 5 nM hPAD4 enzyme, 250 μM BAEE, 50 μM Calcium; 30 min preincubation, 90 min reaction at 37° C.
Type: biochemical
Summary of the method: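 PAD4 (10 nM) preincubated 30 min with compound (top final 50 μM), then BAEE substrate added in pH 7.5 HEPES buffer with DTT, 50 μM calcium, TPEN; 90 min at 37° C. After TCA quench, citrulline derivatized with phenyl glyoxal (4 mM final, 30 min, 37° C) and quantified by RapidFire MS against internal standard.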

Sequence of human PAD4 (hPAD4) (Q9UM07 whole entry): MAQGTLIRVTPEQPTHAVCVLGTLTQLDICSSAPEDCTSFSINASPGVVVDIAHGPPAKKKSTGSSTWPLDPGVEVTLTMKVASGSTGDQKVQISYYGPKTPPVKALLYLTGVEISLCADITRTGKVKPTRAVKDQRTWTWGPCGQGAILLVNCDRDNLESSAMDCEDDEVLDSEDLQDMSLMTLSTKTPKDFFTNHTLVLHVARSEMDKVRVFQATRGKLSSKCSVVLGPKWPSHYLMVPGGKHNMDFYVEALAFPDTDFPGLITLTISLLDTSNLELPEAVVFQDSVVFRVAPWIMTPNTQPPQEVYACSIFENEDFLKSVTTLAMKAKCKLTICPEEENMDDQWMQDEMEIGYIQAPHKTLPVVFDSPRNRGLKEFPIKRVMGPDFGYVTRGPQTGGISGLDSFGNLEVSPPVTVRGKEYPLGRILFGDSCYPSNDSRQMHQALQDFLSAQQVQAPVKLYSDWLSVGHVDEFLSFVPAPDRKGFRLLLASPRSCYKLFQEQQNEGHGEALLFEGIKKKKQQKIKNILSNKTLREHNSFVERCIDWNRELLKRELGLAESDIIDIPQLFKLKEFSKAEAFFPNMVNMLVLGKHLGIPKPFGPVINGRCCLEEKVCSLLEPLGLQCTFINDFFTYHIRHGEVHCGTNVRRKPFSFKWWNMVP

Structure (SMILES)	IC50 [µM]
COc1cc(C(=O)N2C[C@H]3CC[C@@H]2[C@@H]3N)cc2nc(-c3cc4cccnc4n3CC3CC3)n(CC3CN(c4ccnc(C5CC5)n4)C3)c12 [Example 105, (1R,4R,7R)-2-{2-[1-(cyclopropylmethyl)-1H-pyrrolo[2,3-b]pyridin-2-yl]-1-{[1-(2-cyclopropylpyrimidin-4-yl)azetidin-3-yl]methyl}-7-methoxy-1H-1,3-benzodiazole-5-carbonyl}-2-azabicyclo[2.2.1]heptan-7-amine]	0.031
COc1cc(C(=O)N2CC3CCC2[C@@H]3N)cc2nc(-c3cc4cccnc4n3CC3CC3)n(CC3CN(C(=O)[C@H]4C[C@@H]4C)C3)c12 (stereo partly drawn) [Example 106, (1R,4R,7R)-2-{2-[1-(cyclopropylmethyl)-1H-pyrrolo[2,3-b]pyridin-2-yl]-7-methoxy-1-({1-[(1S,2S)-2-methylcyclopropanecarbonyl]aze-tidin-3-yl}methyl)-1H-1,3-benzodiazole-5-carbonyl}-2-azabicyclo[2.2.1]heptan-7-amine]	0.032
CCC#CC(=O)N1CC(Cn2c(-c3cc4cccnc4n3CC3CC3)nc3cc(C(=O)N4C[C@H]5CC[C@@H]4[C@@H]5N)cc(OC)c32)C1 [Example 108, 1-[3-({5-[(1R,4R,7R)-7-amino-2-azabicyclo[2.2.1]heptane-2-carbonyl]-2-[1-(cyclopropylmethyl)-1H-pyrrolo[2,3-b]pyridin-2-yl]-7-methoxy-1H-1,3-benzodiazol-1-yl}methyl)azetidin-1-yl]pent-2-yn-1-one]	0.04
COc1cc(C(=O)N2C[C@H]3CC[C@@H]2[C@@H]3N)cc2nc(-c3cc4cccnc4n3CC3CC3)n(CC3CN(C(=O)C#Cc4ccccc4)C3)c12 [Example 109, 1-[3-({5-[(1R,4R,7R)-7-amino-2-azabicyclo[2.2.1]heptane-2-carbonyl]-2-[1-(cyclopropylmethyl)-1H-pyrrolo[2,3-b]pyridin-2-yl]-7-methoxy-1H-1,3-benzodiazol-1-yl}methyl)azetidin-1-yl]-3-phenylprop-2-yn-1-one]	0.041
COc1cc(C(=O)N2C[C@H]3CC[C@@H]2[C@@H]3N)cc2nc(-c3cc4cccnc4n3CC3CC3)n(CC3CN(C(=O)C4CCCCC4)C3)c12 [Example 110, (1R,4R,7R)-2-{1-[(1-cyclohexanecarbonylazetidin-3-yl)methyl]-2-[1-(cyclopropylmethyl)-1H-pyrrolo[2,3-b]pyridin-2-yl]-7-methoxy-1H-1,3-benzodiazole-5-carbonyl}-2-azabicyclo[2.2.1]heptan-7-amine]	0.046
COc1cc(C(=O)N2C[C@H]3CC[C@@H]2[C@@H]3N)cc2nc(-c3cc4cccnc4n3CC3CC3)n(CC3CN(C(=O)C4CCCC4)C3)c12 [Example 113, (1R,4R,7R)-2-{1-[(1-cyclopentanecarbonylazetidin-3-yl)methyl]-2-[1-(cyclopropylmethyl)-1H-pyrrolo[2,3-b]pyridin-2-yl]-7-methoxy-1H-1,3-benzodiazole-5-carbonyl]-2-azabicyclo[2.2.1]heptan-7-amine]	0.052
COc1cc(C(=O)N2C[C@H]3CC[C@@H]2[C@@H]3N)cc2nc(-c3cc4cccnc4n3CC3CC3)n(CC3CN(C(=O)C4CCC4)C3)c12 [Example 114, (1R,4R,7R)-2-{1-[(1-cyclobutanecarbonylazetidin-3-yl)methyl]-2-[1-(cyclopropylmethyl)-1H-pyrrolo[2,3-b]pyridin-2-yl]-7-methoxy-1H-1,3-benzodiazole-5-carbonyl}-2-azabicyclo[2.2.1]heptan-7-amine]	0.054
COc1cc(C(=O)N2C[C@H]3CC[C@@H]2[C@@H]3N)cc2nc(-c3cc4cccnc4n3CC3CC3)n(CC3CN(C(=O)CC4CC4)C3)c12 [Example 115, 1-[3-({5-[(1R,4R,7R)-7-amino-2-azabicyclo[2.2.1]heptane-2-carbonyl]-2-[1-(cyclopropylmethyl)-1H-pyrrolo[2,3-b]pyridin-2-yl]-7-methoxy-1H-1,3-benzodiazol-1-yl}methyl)azetidin-1-yl]-2-cyclopropylethan-1-one]	0.059
COc1cc(C(=O)N2C[C@H]3CC[C@@H]2[C@@H]3N)cc2nc(-c3cc4cccnc4n3CC3CC3)n(CC3CN(C(=O)c4cnc(NCC(C)(C)O)nc4)C3)c12 [Example 121, 1-({5-[3-({5-[(1R,4R,7R)-7-amino-2-azabicyclo[2.2.1]heptane-2-carbonyl]-2-[1-(cyclopropylmethyl)-1H-pyrrolo[2,3-b]pyridin-2-yl]-7-methoxy-1H-1,3-benzodiazol-1-yl}methyl)azetidine-1-carbonyl]pyrimidin-2-yl}amino)-2-methylpropan-2-ol]	0.095
COc1cc(C(=O)N2C[C@H]3CC[C@@H]2[C@@H]3N)cc2nc(-c3cc4cccnc4n3CC3CC3)n(CC3CN(C(=O)C4CC4)C3)c12 [Example 123, (1R,4R,7R)-2-{1-[(1-cyclopropanecarbonylazetidin-3-yl)methyl]-2-[1-(cyclopropylmethyl)-1H-pyrrolo[2,3-b]pyridin-2-yl]-7-methoxy-1H-1,3-benzodiazole-5-carbonyl}-2-azabicyclo[2.2.1]heptan-7-amine]	0.1

Next, values leading:

IC50 [µM]	Structure (SMILES)
0.033	COc1cc(C(=O)N2C[C@H]3CC[C@@H]2[C@@H]3N)cc2nc(-c3cc4cccnc4n3CC3CC3)n(CC3CN(C(=O)c4ccnc(Cl)c4)C3)c12 [Example 107, (1R,4R,7R)-2-(1-{[1-(2-chloropyridine-4-carbonyl)azetidin-3-yl]methyl}-2-[1-(cyclopropylmethyl)-1H-pyrrolo[2,3-b]pyridin-2-yl]-7-methoxy-1H-1,3-benzodiazole-5-carbonyl)-2-azabicyclo[2.2.1]heptan-7-amine]
0.051	COc1cc(C(=O)N2C[C@H]3CC[C@@H]2[C@@H]3N)cc2nc(-c3cc4cccnc4n3CC3CC3)n(CC3CN(C(=O)c4ccncn4)C3)c12 [Example 111, (1R,4R,7R)-2-{2-[1-(cyclopropylmethyl)-1H-pyrrolo[2,3-b]pyridin-2-yl]-7-methoxy-1-{[1-(pyrimidine-4-carbonyl)azetidin-3-yl]methyl}-1H-1,3-benzodiazole-5-carbonyl}-2-azabicyclo[2.2.1]heptan-7-amine]
0.051	COc1cc(C(=O)N2C[C@H]3CC[C@@H]2[C@@H]3N)cc2nc(-c3cc4cccnc4n3CC3CC3)n(CC3CN(C(=O)c4ccc(C#N)cc4)C3)c12 [Example 112, 4-[3-({5-[(1R,4R,7R)-7-amino-2-azabicyclo[2.2.1]heptane-2-carbonyl]-2-[1-(cyclopropylmethyl)-1H-pyrrolo[2,3-b]pyridin-2-yl]-7-methoxy-1H-1,3-benzodiazol-1-yl}methyl)azetidine-1-carbonyl]benzonitrile]
0.059	C/C=C/C(=O)N1CC(Cn2c(-c3cc4cccnc4n3CC3CC3)nc3cc(C(=O)N4C[C@H]5CC[C@@H]4[C@@H]5N)cc(OC)c32)C1 [Example 116, (2E)-1-[3-({5-[(1R,4R,7R)-7-amino-2-azabicyclo[2.2.1]heptane-2-carbonyl]-2-[1-(cyclopropylmethyl)-1H-pyrrolo[2,3-b]pyridin-2-yl]-7-methoxy-1H-1,3-benzodiazol-1-yl}methyl)azetidin-1-yl]but-2-en-1-one]
0.066	COc1cc(C(=O)N2C[C@H]3CC[C@@H]2[C@@H]3N)cc2nc(-c3cc4cccnc4n3CC3CC3)n(CC3CN(C(=O)c4ccncc4)C3)c12 [Example 117, (1R,4R,7R)-2-{2-[1-(cyclopropylmethyl)-1H-pyrrolo[2,3-b]pyridin-2-yl]-7-methoxy-1-{[1-(pyridine-4-carbonyl)azetidin-3-yl]methyl}-1H-1,3-benzodiazole-5-carbonyl}-2-azabicyclo[2.2.1]heptan-7-amine]
0.068	CCCC(=O)N1CC(Cn2c(-c3cc4cccnc4n3CC3CC3)nc3cc(C(=O)N4C[C@H]5CC[C@@H]4[C@@H]5N)cc(OC)c32)C1 [Example 118, 1-[3-({5-[(1R,4R,7R)-7-amino-2-azabicyclo[2.2.1]heptane-2-carbonyl]-2-[1-(cyclopropylmethyl)-1H-pyrrolo[2,3-b]pyridin-2-yl]-7-methoxy-1H-1,3-benzodiazol-1-yl}methyl)azetidin-1-yl]butan-1-one]
0.069	COc1cc(C(=O)N2C[C@H]3CC[C@@H]2[C@@H]3N)cc2nc(-c3cc4cccnc4n3CC3CC3)n(CC3CN(C(=O)c4ccnc(C)n4)C3)c12 [Example 119, (1R,4R,7R)-2-{2-[1-(cyclopropylmethyl)-1H-pyrrolo[2,3-b]pyridin-2-yl]-7-methoxy-1-{[1-(2-methylpyrimidine-4-carbonyl)azetidin-3-yl]methyl}-1H-1,3-benzodiazole-5-carbonyl}-2-azabicyclo[2.2.1]heptan-7-amine]
0.073	COc1cc(C(=O)N2C[C@H]3CC[C@@H]2[C@@H]3N)cc2nc(-c3cc4cccnc4n3CC3CC3)n(CC3CN(C(=O)c4ccc(Cl)nc4)C3)c12 [Example 120, (1R,4R,7R)-2-(1-{[1-(6-chloropyridine-3-carbonyl)azetidin-3-yl]methyl}-2-[1-(cyclopropylmethyl)-1H-pyrrolo[2,3-b]pyridin-2-yl]-7-methoxy-1H-1,3-benzodiazole-5-carbonyl)-2-azabicyclo[2.2.1]heptan-7-amine]
0.098	COc1cc(C(=O)N2C[C@H]3CC[C@@H]2[C@@H]3N)cc2nc(-c3cc4cccnc4n3CC3CC3)n(CC3CN(C(=O)c4ccnc(F)c4)C3)c12 [Example 122, (1R,4R,7R)-2-{2-[1-(cyclopropylmethyl)-1H-pyrrolo[2,3-b]pyridin-2-yl]-1-{[1-(2-fluoropyridine-4-carbonyl)azetidin-3-yl]methyl}-7-methoxy-1H-1,3-benzodiazole-5-carbonyl}-2-azabicyclo[2.2.1]heptan-7-amine]
0.102	C=CC(=O)N1CC(Cn2c(-c3cc4cccnc4n3CC3CC3)nc3cc(C(=O)N4C[C@H]5CC[C@@H]4[C@@H]5N)cc(OC)c32)C1 [Example 124, 1-[3-({5-[(1R,4R,7R)-7-amino-2-azabicyclo[2.2.1]heptane-2-carbonyl]-2-[1-(cyclopropylmethyl)-1H-pyrrolo[2,3-b]pyridin-2-yl]-7-methoxy-1H-1,3-benzodiazol-1-yl}methyl)azetidin-1-yl]prop-2-en-1-one]
